Source: patent US6420425B1, “Method for the broad based treatment of infections especially infections of organs such as the skin and vagina” (priority 1997, dated 2002)

How the values were obtained:
Candida albicans [1] = conditions: microtiter broth, 25° C., 3-5 days
Method: (§1) The susceptibility of selected pathogens to individual and mixtures of acetic and boric acid was investigated, in vitro. Fresh isolates of Staphylococcus intermedius, Pseudomonas aeruginosa, Candida albicans, Microsporum canis and Malassezia pachydermatis were obtained from VHUP Clinical Veterinary Microbiology Laboratory. Staphylococcus and Pseudomonas were grown on Mueller-Hinton (M-H) broth overnight at approximately 37° C. and fungi were inoculated into Sabourauds Antibiotic broth medium and incubated at 25° C. for 4 days. Stock dilutions (2x) of both boric acid and acetic acid were prepared in M-H broth (for bacteria studies) or in Sabourauds Antibiotic Broth (for fungal studies). These concentrations were 1.0%, 4.0%, 7.5% and 10.0%. The stock solutions were used to prepare the full spectrum of all possible combinations of acetic and boric acids in 96 well microtiter plates. All wells were raised to a final volume of 100 ul as required. The organisms were diluted to an approximate concentration of 10^5 cfu and 10 ul of this preparation was inolculated into each well with an 8 channel micropipeter. The microtiter plates containing the bacteria were incubated at 35.5° C. for 18 to 24 hours. The plates containing the fungi were incubated at 25° C. for 3-5 days. The presence of the growth in the wells was recorded. These values determine the Minimum Inhibitory Concentration (MIC) of the acids at individual and mixed concentrations.

Pseudomonas aeruginosa = conditions: microtiter broth, 35.5° C., 18 to 24 hours
Method: as §1

[2] = tested on: Staphylococcus intermedius; conditions: microtiter broth, 35.5° C., 18 to 24 hours
Method: as §1

Candida albicans [3] = conditions: in vitro; cited from earlier work
vulvovaginal candidiasis = conditions: in vivo; cited from earlier work
fungi causing otomycosis = conditions: in vitro, five fungi; cited from earlier work

| SMILES | growth inhibition (Candida albicans [1]) | growth inhibition (Pseudomonas aeruginosa) | growth inhibition [2] | activity against Candida albicans (Candida albicans [3]) | efficacy in treating vulvovaginal candidiasis (vulvovaginal candidiasis) | fungitoxic effect (fungi causing otomycosis) |
| --- | --- | --- | --- | --- | --- | --- |
| OB(O)O [Boric acid, boric acid] | inhibited | inhibited | inhibited | fungistatic | effective |  |
| CC(=O)O [acetic acid] |  |  |  |  |  | Some antifungal effect |
